Measured values from patent US12662451B2, “Chemical compounds and uses thereof” (GLAXOSMITHKLINE INTELLECTUAL PROPERTY (NO.4) LIMITED, priority 2023, dated 2026).

Target: T1, recombinant full-length WRN protein (1-1432) (Homo sapiens, UniProt Q14191)
T1 construct: recombinant full-length WRN protein (1-1432)
Assay: WRN unwinding activity, fluorogenic 384-well assay (Example A)
Type: biochemical
Conditions: WRN unwinding activity, 4 hr; Table 2; read-out: 4 hr UNW pIC50 (converted)
How it was run: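 200 pM enzyme (2× stock) preincubated with compound 4 h at ambient temperature, then 200 μM ATP and 12 nM quenched TAMRA-labelled dsDNA (2× stocks) added for 60 min; EDTA-quenched. Buffer 25 mM Tris pH 8.0, 5 mM NaCl, 2 mM MgCl2. Fluorescence at 525/598 nm; pIC50 from four-parameter fit.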

T1 sequence (Q14191 whole entry): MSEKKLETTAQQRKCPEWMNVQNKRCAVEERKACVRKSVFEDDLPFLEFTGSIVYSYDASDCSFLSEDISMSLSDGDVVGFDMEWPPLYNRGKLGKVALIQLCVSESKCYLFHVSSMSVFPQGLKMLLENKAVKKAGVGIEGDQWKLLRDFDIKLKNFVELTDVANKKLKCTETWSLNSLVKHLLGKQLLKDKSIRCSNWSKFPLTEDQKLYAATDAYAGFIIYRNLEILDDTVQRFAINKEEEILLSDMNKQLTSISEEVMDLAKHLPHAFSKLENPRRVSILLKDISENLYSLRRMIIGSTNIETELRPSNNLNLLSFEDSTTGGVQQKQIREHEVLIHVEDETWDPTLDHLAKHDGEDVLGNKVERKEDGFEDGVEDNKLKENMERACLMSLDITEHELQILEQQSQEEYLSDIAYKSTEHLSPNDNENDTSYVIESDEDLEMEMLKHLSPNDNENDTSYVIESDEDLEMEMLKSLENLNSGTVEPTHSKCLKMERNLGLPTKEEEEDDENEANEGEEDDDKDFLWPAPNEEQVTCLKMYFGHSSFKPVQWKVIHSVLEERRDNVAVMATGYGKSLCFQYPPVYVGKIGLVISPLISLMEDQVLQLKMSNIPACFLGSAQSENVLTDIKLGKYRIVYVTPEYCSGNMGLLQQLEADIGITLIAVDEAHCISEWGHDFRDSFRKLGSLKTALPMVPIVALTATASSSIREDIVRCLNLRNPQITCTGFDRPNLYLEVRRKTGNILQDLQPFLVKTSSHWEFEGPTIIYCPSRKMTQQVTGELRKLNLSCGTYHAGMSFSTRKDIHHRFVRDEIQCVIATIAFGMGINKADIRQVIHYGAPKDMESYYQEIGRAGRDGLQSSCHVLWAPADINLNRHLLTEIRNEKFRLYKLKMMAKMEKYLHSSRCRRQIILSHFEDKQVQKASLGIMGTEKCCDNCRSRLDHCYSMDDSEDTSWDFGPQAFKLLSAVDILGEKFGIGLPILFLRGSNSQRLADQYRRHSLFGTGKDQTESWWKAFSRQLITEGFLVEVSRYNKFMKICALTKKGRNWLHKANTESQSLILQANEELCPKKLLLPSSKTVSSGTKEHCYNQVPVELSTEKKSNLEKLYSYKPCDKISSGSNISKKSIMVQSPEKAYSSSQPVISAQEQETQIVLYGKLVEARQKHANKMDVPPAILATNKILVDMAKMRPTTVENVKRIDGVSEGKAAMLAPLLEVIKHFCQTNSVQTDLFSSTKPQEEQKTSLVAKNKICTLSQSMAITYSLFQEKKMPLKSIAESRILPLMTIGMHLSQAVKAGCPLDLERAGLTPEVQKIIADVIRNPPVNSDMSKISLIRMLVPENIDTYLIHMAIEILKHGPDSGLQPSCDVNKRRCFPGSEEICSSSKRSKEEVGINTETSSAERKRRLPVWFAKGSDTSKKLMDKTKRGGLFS

Compound	IC50 [nM]
COC(=O)N1CCc2c(cnnc2-c2ccc([C@H]3CCC[C@@H](C(=O)Nc4ccc(C(F)(F)F)cc4F)[C@@H]3C(=O)O)cc2)C1 [Example 40, (1R,2R,6S)-2-((2-fluoro-4-(trifluoromethyl)phenyl)carbamoyl)-6-(4-(6-(methoxycarbonyl)-5,6,7,8-tetrahydropyrido[3,4-d]pyridazin-1-yl)phenyl)cyclohexane-1-carboxylic acid]	10000
COc1cscc1-c1ccc([C@H]2CCC[C@@H](C(=O)Nc3ccc(C(F)(F)F)cc3F)[C@@H]2C(=O)O)cc1 [Example 42, (1R,2R,6S)-2-((2-fluoro-4-(trifluoromethyl)phenyl)carbamoyl)-6-(4-(4-methoxythiophen-3-yl)phenyl) cyclohexane-1-carboxylic acid]	1000
Cc1cscc1-c1ccc([C@H]2CCC[C@@H](C(=O)Nc3ccc(C(F)(F)F)cc3F)[C@@H]2C(=O)O)cc1 [Example 43, (1R,2R,6S)-2-((2-fluoro-4-(trifluoromethyl)phenyl)carbamoyl)-6-(4-(4-methylthiophen-3-yl)phenyl)cyclohexane-1-carboxylic acid]	10
O=C(O)[C@@H]1[C@@H](c2ccc(-c3ccnc4ccsc34)cc2)CCC[C@H]1C(=O)Nc1ccc(C(F)(F)F)cc1F [Example 44, (1R,2R,6S)-2-((2-fluoro-4-(trifluoromethyl)phenyl)carbamoyl)-6-(4-(thieno[3,2-b]pyridin-7-yl)phenyl)cyclohexane-1-carboxylic acid]	6310
O=C(O)[C@@H]1[C@@H](c2ccc(-c3nncc4ccoc34)cc2)CCC[C@H]1C(=O)Nc1ccc(C(F)(F)F)cc1F [Example 45, (1R,2R,6S)-2-((2-fluoro-4-(trifluoromethyl)phenyl)carbamoyl)-6-(4-(furo[2,3-d]pyridazin-7-yl)phenyl)cyclohexane-1-carboxylic acid]	126
Cc1sccc1-c1ccc([C@H]2CCC[C@@H](C(=O)Nc3ccc(C(F)(F)F)cc3F)[C@@H]2C(=O)O)cc1 [Example 46, (1R,2R,6S)-2-((2-fluoro-4-(trifluoromethyl)phenyl)carbamoyl)-6-(4-(2-methylthiophen-3-yl)phenyl)cyclohexane-1-carboxylic acid]	31.6
Cc1cc(-c2ccc([C@H]3CCC[C@@H](C(=O)Nc4ccc(C(F)(F)F)cc4F)[C@@H]3C(=O)O)cc2)cs1 [Example 47, (1R,2R,6S)-2-((2-fluoro-4-(trifluoromethyl)phenyl)carbamoyl)-6-(4-(5-methylthiophen-3-yl)phenyl)cyclohexane-1-carboxylic acid]	10
O=C(O)[C@@H]1[C@@H](c2ccc(-c3csnc3CO)cc2)CCC[C@H]1C(=O)Nc1ccc(C(F)(F)F)cc1F [Example 50, (1R,2R,6S)-2-((2-fluoro-4-(trifluoromethyl)phenyl)carbamoyl)-6-(4-(3-(hydroxymethyl)isothiazol-4-yl)phenyl)cyclohexane-1-carboxylic acid]	7.94
O=C(O)[C@@H]1[C@@H](c2ccc(-c3cnsc3CO)cc2)CCC[C@H]1C(=O)Nc1ccc(C(F)(F)F)cc1F [Example 51, (1R,2R,6S)-2-((2-fluoro-4-(trifluoromethyl)phenyl)carbamoyl)-6-(4-(5-(hydroxymethyl)isothiazol-4-yl)phenyl) cyclohexane-1-carboxylic acid]	10
O=C(O)[C@@H]1[C@@H](c2ccc(-c3ncsc3CO)cc2)CCC[C@H]1C(=O)Nc1ccc(C(F)(F)F)cc1F [Example 52, (1R,2R,6S)-2-((2-fluoro-4-(trifluoromethyl)phenyl)carbamoyl)-6-(4-(5-(hydroxymethyl)thiazol-4-yl)phenyl)cyclohexane-1-carboxylic acid]	794
O=C(O)[C@@H]1[C@@H](c2ccc(C3=COCCC3)cc2)CCC[C@H]1C(=O)Nc1ccc(C(F)(F)F)cc1F [Example 56, (1R,2S,6R)—2-(4-(3,4-dihydro-2H-pyran-5-yl)phenyl)-6-((2-fluoro-4-(trifluoromethyl)phenyl)carbamoyl)cyclohexane-1-carboxylic acid]	1.58
